According to ChEMBL document CHEMBL1128700 (J Med Chem, 1995):

Tests used:
[1] = target: Human immunodeficiency virus type 1 reverse transcriptase (Human immunodeficiency virus 1) (UniProt Q72547); test: Percent inhibitory activity against wild type (WT) HIV type I reverse transcriptase at a concentration of 1 uM
[2] = target: Human immunodeficiency virus type 1 reverse transcriptase (Human immunodeficiency virus 1, UniProt Q72547, Y181C); test: Compound was evaluated for inhibition of Y181C HIV type I reverse transcriptase.
[3] = target: Human immunodeficiency virus type 1 reverse transcriptase (Human immunodeficiency virus 1, UniProt Q72547); test: Compound was evaluated for inhibition of WT HIV type I reverse transcriptase.
[4] = test system: Human immunodeficiency virus type 1 reverse transcriptase (Human immunodeficiency virus 1), Q72547 [Y181C]; test: Percent inhibitory activity against Y181C HIV type I reverse transcriptase at a concentration of 1 uM
[5] = test system: Human immunodeficiency virus type 1 reverse transcriptase (Human immunodeficiency virus 1), Q72547 [Y181C]; settings: 10 uM
Description: Percent inhibitory activity against Y181C HIV type I reverse transcriptase at a concentration of 10 uM

SMILES	inhibition [1] [%]	IC50 [2] [nM]	IC50 [3] [nM]	inhibition [4] [%]	inhibition [5] [%]
Nc1ccc(OCc2ccnc3c2NC(=O)c2cccnc2N3C2CC2)cc1	91	1010	100	49	
CCN1c2ncccc2C(=O)Nc2c(COCc3ccccc3)cc(-c3cccc(OC)c3)nc21	0			12	
O=C1Nc2c(CN3CCOCC3)ccnc2N(C2CC2)c2ncccc21	50		1030	21	
CCN1c2ncccc2C(=O)Nc2c(C=O)cc(OC)nc21	78		240	38	
O=C1Nc2c(CN3CCCC3)ccnc2N(C2CC2)c2ncccc21	51		700	16	
Cc1cccc(OCc2ccnc3c2NC(=O)c2cccnc2N3C2CC2)c1	38		2430	9	
C=Cc1ccnc2c1NC(=O)c1cccnc1N2C1CC1	83		110	16	
O=C1Nc2c(CN3CCCCC3)ccnc2N(C2CC2)c2ncccc21	29			20	
CCN1c2ncccc2C(=O)Nc2c(C=O)cc(O)nc21	36			6	
O=C(O)/C=C/c1ccnc2c1NC(=O)c1cccnc1N2C1CC1	0			0	
O=C1Nc2c(CCc3ccccc3)ccnc2N(C2CC2)c2ncccc21	36			38	
O=C1Nc2c(COCCCc3ccccc3)ccnc2N(C2CC2)c2ncccc21	29			20	
CCOC(=O)CCc1ccnc2c1NC(=O)c1cccnc1N2C1CC1	13			11	
CCNc1ccc(OCc2ccnc3c2NC(=O)c2cccnc2N3C2CC2)cc1	88	430	80	58	
CCN1c2ncccc2C(=O)Nc2c(CO)cc(-c3cccc(OC)c3)nc21	16			0	
O=C1Nc2c(Cc3ccccc3)ccnc2N(C2CC2)c2ncccc21	73		140	8	
O=C1Nc2c(COc3ccc([N+](=O)[O-])cc3)ccnc2N(C2CC2)c2ncccc21	43		1130	12	
O=C1Nc2c(CSCc3ccccc3)ccnc2N(C2CC2)c2ncccc21	33			28	
CCN1c2ncccc2C(=O)Nc2c(C=O)cc(-c3cccc(OC)c3)nc21	71	420	330	63	
CCN1c2ncccc2C(=O)Nc2c(C3OCCCO3)cc(O)nc21	0			0	

SMILES	inhibition [1] [%]	IC50 [2] [nM]	IC50 [3] [nM]	inhibition [4] [%]	inhibition [5] [%]
Cc1ccccc1OCc1ccnc2c1NC(=O)c1cccnc1N2C1CC1	65		290	28	
O=C1Nc2c(/C=C/c3ccccc3)ccnc2N(C2CC2)c2ncccc21	23			25	
CCOCc1ccnc2c1NC(=O)c1cccnc1N2C1CC1	41		1300	29	
O=C1Nc2c(COc3ccccc3)ccnc2N(C2CC2)c2ncccc21	78	2580	120	26	
CCN1c2ncccc2C(=O)Nc2c(COCc3ccccc3)cc(O)nc21	83			38	
Cc1ccc(Cc2ccnc3c2NC(=O)c2cccnc2N3C2CC2)c(O)c1	76		200	29	
O=C1Nc2c(Cc3ccccc3O)ccnc2N(C2CC2)c2ncccc21	75	1120	190	50	
CCN1c2ncccc2C(=O)Nc2c(COc3ccccc3)cc(OC)nc21	44		4000	17	
CCN1c2ncccc2C(=O)Nc2c(Cc3ccccc3)cc(OC)nc21	0			0	
O=C1Nc2c(CO)ccnc2N(C2CC2)c2ncccc21	34			4	
CCN1c2ncccc2C(=O)Nc2c(CO)cc(OC)nc21	89		50	24	
O=C1Nc2c(CSc3ccccc3)ccnc2N(C2CC2)c2ncccc21	44		1030	14	
CCN1c2ncccc2C(=O)Nc2c(COCc3ccccc3)cc(OC)nc21	42		920	26	
CCN1c2ncccc2C(=O)Nc2c(CO)cc(O)nc21	51		420	25	
CCOC(=O)/C=C/c1ccnc2c1NC(=O)c1cccnc1N2C1CC1	27			22	
N#Cc1ccc(OCc2ccnc3c2NC(=O)c2cccnc2N3C2CC2)cc1	57		410	11	
COc1ccc(O)c(Cc2ccnc3c2NC(=O)c2cccnc2N3C2CC2)c1	42		850	47	
CCN1c2ncccc2C(=O)Nc2c(C3OCCCO3)cc(OC)nc21	52		800	22	
O=C1Nc2c(COc3ccccc3O)ccnc2N(C2CC2)c2ncccc21	59		460	42	
O=C(O)CCc1ccnc2c1NC(=O)c1cccnc1N2C1CC1	2			8	

SMILES	inhibition [1] [%]	IC50 [2] [nM]	IC50 [3] [nM]	inhibition [4] [%]	inhibition [5] [%]
O=C1Nc2c(COCc3ccccc3)ccnc2N(C2CC2)c2ncccc21	67		270	37	
CCN1c2ncccc2C(=O)Nc2c(Cc3ccccc3)cc(O)nc21	67			42	
O=C1Nc2c(CNc3ccccc3)ccnc2N(C2CC2)c2ncccc21	87	1370	60	41	
O=C1Nc2c(CC3=CCNC3)ccnc2N(C2CC2)c2ncccc21	54		640	26	
Cc1ccc(OCc2ccnc3c2NC(=O)c2cccnc2N3C2CC2)cc1	55		580	33	
CCN1c2ncccc2C(=O)Nc2c(C3OCCCO3)cc(-c3cccc(OC)c3)nc21	40			7	
O=C1Nc2c(Cn3cccn3)ccnc2N(C2CC2)c2ncccc21	36		2200	5	
O=C1Nc2c(Cn3ccnc3)ccnc2N(C2CC2)c2ncccc21	13			20	
O=C1Nc2c(COCCc3ccccc3)ccnc2N(C2CC2)c2ncccc21	55		420	28	
COc1ccc(OCc2ccnc3c2NC(=O)c2cccnc2N3C2CC2)cc1	47		1040	41	
O=C1Nc2c(COc3ccccc3Cl)ccnc2N(C2CC2)c2ncccc21	30		3050	20	
CCN1c2ncccc2C(=O)Nc2c(Cc3ccccc3)cc(=O)[nH]c21		1300	340		
CCN1c2ncccc2C(=O)Nc2c(Cc3ccccc3)cc(-c3cccc(OC)c3)nc21	20			15	
CCN1c2ncccc2C(=O)Nc2c(COc3ccccc3)cc(O)nc21	33			20	
Cc1ccnc2c1NC(=O)c1cccnc1N2C1CC1	85				59
CCN1c2ncccc2C(=O)Nc2c(COCc3ccccc3)cc(=O)[nH]c21		1070	110		
C=CCOCc1ccnc2c1NC(=O)c1cccnc1N2C1CC1	35		1410	29	
CCN1c2ncccc2C(=O)Nc2c(COc3ccccc3)cc(-c3cccc(OC)c3)nc21	69		490	37	
